Common to all, as to type: in vivo, rat
One data set has as its system rats. The data set can be described thus: Premature ventricle contractions after intra-tracheal bleomycin. Particulars: single intra-tracheal delivery 2.5 mg/kg. The source says: Bleomycin induces experimental lung fibrosis in a variety of animal models and it causes inflammatory and fibrotic reactions within a short period of time, even more so after intratracheal instillation.

For a further data set, the system named is vagotomized rats. The data set can be described thus: Pressor and sympatho-excitatory response to topical bradykinin in bleomycin-treated rats. The note with it: BK 10 μg/ml; 4 weeks after bleomycin, compared to sham. Here is the method:
For measuring vitals of the rats, a Millar catheter (SPR 524; size, 3.5-Fr; Millar Instruments, Houston, TX) was advanced through the right common carotid artery and progressed into the aorta and left in place to record arterial pressure (AP), mean arterial pressure (MAP), and heart rate (HR), using PowerLab (Model 16S) and LabChart software (version 7.0) (ADInstruments, Colorado Springs, CO). Renal sympathetic nerve activity (RSNA) and integrated RSNA (iRSNA) were also measured. RSNA was recorded as described (Gao, et al. (2005) Hypertension 45:1173-1181; Wang, et al. (2010) J. Appl. Physiol., 108:1365-1375; Becker, et al. (2016) J. Physiol., 594:5711-5725). In brief, the left kidney, renal artery, and nerves were exposed through a left retroperitoneal flank incision. Sympathetic nerves running on or beside the renal artery were identified. The renal sympathetic nerves were placed on a pair of platinum-iridium recording electrodes and cut distally to avoid recording afferent activity. Nerve activity was amplified ([…]) and filtered (bandwidth: 100 to 3000 Hz) using a Grass P55C preamplifier. […] At the end of the experiment, the rat was euthanized with an overdose of pentobarbital sodium. Respective noise levels were subtracted from the nerve recording data before percent changes from baseline were calculated. […]

Data set [1] concerns Interferon Regulatory Factor 8 (IRF8). In words: IRF8 protein expression in T1-T4 DRGs and stellate ganglia after bleomycin lung injury. Particulars: 4-weeks post-bleomycin rats.

With bleomycin, in the data set with rats, the “premature ventricle contractions (PVC) (FIG. 14)” value is reported as “dramatic increase”. Also, the “pressor and sympatho-excitatory response to topical BK (FIG. 13)” value in the data set with vagotomized rats is “exaggerated pressor and sympatho-excitatory response”. For the same substance, the “IRF8 protein expression in T1-T4 DRGs and stellate ganglia (FIG. 12)” value in data set [1] is “increases”.

The values are drawn from US12138274B2, “Compositions and methods for the treatment of peripheral artery disease and cardiopulmonary diseases” (BOARD OF REGENTS OF THE UNIVERSITY OF NEBRASKA, priority 2018, dated 2024).
